Entries after “also recorded” stand apart in the source; their conditions may differ.
Assays:
[1] = molecular target: T1, mouse PNKP (Mus musculus, UniProt Q9JLV6); experiment: PiColorLock 3'-phosphatase assay, mouse PNKP; type: biochemical; conditions: all concentrations tested (down to 5 μM)
T1 construct: made in house
Source text: (§1) To determine the specificity of A12B4C3 for human PNKP phosphatase activity, a number of closely related phosphatases such as the PNKP enzymes isolated from bacteriophage T4, Schizosaccharomyces pombe and mouse, as well as aprataxin, were examined.

[2] = molecular target: T2, Phage T4 polynucleotide kinase (T4 PNK) (Enterobacteria phage T4, UniProt P06855); experiment: PiColorLock 3'-phosphatase assay, phage T4 PNK; type: biochemical, bacteriophage T4
T2 construct: purchased Roche Diagnostics (Indianapolis, Ind.)
Source text: as §1

[3] = molecular target: T3, human PNKP kinase activity (Homo sapiens, UniProt Q96T60); experiment: DNA kinase assay; type: biochemical
T3 construct: made in house; host or cells: bacteria (said only for the batch compared with aprataxin)
Procedure: Reaction mixtures (20 μl) containing kinase buffer (80 mM succinic acid (pH 5.5), 10 mM MgCl2, and 1 mM DTT), 100 μM 20-mer oligonucleotide substrate, 3.3 pmol of [γ-32P]ATP, A12B4C3 (0-50 μM) in 2 μl DMSO, and 1 μg of PNK were incubated at 37° C. for 20 minutes. The reaction was stopped by addition of an equal volume of DNA loading dye (90% formamide, 0.02% bromophenol blue, 0.02% xylene cyanol in 1×TBE). Samples were boiled for 5 minutes and the products separated on a 12% polyacrylamide/8 M urea gel. Gels were scanned with a Typhoon 9400 Variable Mode Imager (GE Healthcare), and quantified using Image Quant 5.2 Software (GE Healthcare).
The effect of A12B4C3 on the kinase activity of human PNKP was examined by quantifying the transfer of ^32P-labeled phosphate from radiolabeled ATP to an oligonucleotide. […] However, the inhibition of the kinase and phosphatase activities cannot be directly compared because the standard assay for kinase activity uses ten-fold more enzyme than the assay for phosphatase activity

[4] = molecular target: T4, Schizosaccharomyces pombe PNKP (Schizosaccharomyces pombe, UniProt O13911); experiment: PiColorLock 3'-phosphatase assay, fission yeast PNKP; type: biochemical; conditions: read-out: inhibition of S. pombe PNKP
T4 construct: made in house
T4 sequence (O13911 1-408): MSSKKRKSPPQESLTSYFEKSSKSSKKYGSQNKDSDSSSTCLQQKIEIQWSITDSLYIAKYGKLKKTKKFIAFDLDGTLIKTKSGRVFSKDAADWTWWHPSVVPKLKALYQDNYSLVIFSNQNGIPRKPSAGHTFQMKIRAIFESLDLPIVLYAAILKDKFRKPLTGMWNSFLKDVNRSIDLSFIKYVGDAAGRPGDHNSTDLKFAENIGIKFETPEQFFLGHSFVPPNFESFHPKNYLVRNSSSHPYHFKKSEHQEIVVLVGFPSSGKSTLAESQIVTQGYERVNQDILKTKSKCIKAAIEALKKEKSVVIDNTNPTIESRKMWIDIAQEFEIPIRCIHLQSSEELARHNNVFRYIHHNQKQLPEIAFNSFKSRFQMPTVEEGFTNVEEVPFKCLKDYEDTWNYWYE
Source text: as §1

[5] = test system: M059J cells (DNA-PKcs negative); type: cell-based, human
[6] = molecular target: human PNKP phosphatase activity (Homo sapiens, UniProt Q96T60); experiment: PiColorlock Gold assay for 3'-phosphatase activity (release of inorganic phosphate)
[7] = molecular target: calcineurin (Rattus norvegicus, UniProt P63329); experiment: Calcineurin pNPP phosphatase assay; type: biochemical; conditions: concentration as high as 83.3 μM
Procedure: PP-1cγ and calcineurin activity was analyzed, using a colorimetric p-nitrophenol phosphate (pNPP) assay as previously described (33). The reaction were carried out in a 96-well microplate with a final volume of 60 μl containing 40 μl of pNPP assay buffer (50 mM Tris, pH 7.4, 0.1 mM EDTA, 30 mM MgCl2, 0.5 mM MnCl2, 1 mg/ml BSA, 0.2% β-mercaptoethanol), 0.03 μg PP-1cγ (specific activity>30 units per mg) or a catalytically equivalent quantity of calcineurin and 10 μl of 0.5 mM DNA 3′-phosphatase inhibitor sample in DMSO or 10 μl of 50 μM A12B4C3 sample in DMSO, or control solvent. After a 10-minute incubation at 37° C., 10 μl of 30 mM pNPP was added to each well and incubated for an additional of 60 minutes and 45 minutes for PP-1cγ and calcineurin, respectively. The absorbance at 405 nm was measured using a SOFTmax 2.35 microplate reader (Molecular Devices, Sunnyvale, Calif.).

[8] = molecular target: T5, human PNKP (hPNKP) 3'-phosphatase activity (Homo sapiens, UniProt Q96T60); experiment: Fluorescence quenching-based screening assay for PNKP 3'-phosphatase activity; type: biochemical; conditions: 100 μM compound, 50 ng hPNKP
T5 construct: made in house; host or cells: bacteria (said only for the batch compared with aprataxin)
Procedure: The […] assay developed originally for protein kinases by QTL Biosystems (Santa Fe, N. Mex.) was modified. […] The TAMRA-labelled oligonucleotide lacking a 3'-phosphate served as a control. […] The assay was performed in 384-well white Optiplate microplates (PerkinElmer, Woodbridge, ON) in 70 mM Tris-HCl, pH 7.4, 60 mM MgCl2, 5 mM MnCl2, 0.3% BSA, 0.09% sodium azide. Reaction buffer was prepared by adding 1 mM DTT immediately prior to use. Five μL of 3'-phosphatase substrate (final concentration 0.5 μM) was used per well. In duplicate, 10 μl of each concentration of hPNKP was added per well. Plates were incubated for 1 hour at 37° C. and then 15 μl of 1× sensor solution (provided by QTL) was added to each well and incubated for 30 minutes at room temperature. Fluorescence (485 nm excitation and 520 nm emission wavelengths) of each well was read in a FLUOstar Optima® (BMG Labtech Inc, Durham, N.C.). Data were analyzed using GraphPad Prism® Software (San Diego, Calif.). […] Small molecules were provided in powder form and were dissolved in 100% DMSO and a final concentration of 100 μM was added to each well and assays were performed as described above. After obtaining an optimum calibration curve and enzyme concentration curve, a simplified form of the assay to test the library in a short time, was employed. One concentration of hPNKP, 50 ng, was tested and compared with the control well with no enzyme. The assay was conducted in the same way as described above with respect to oligonucleotides, buffer, controls, incubation lengths/temperatures, centrifugations and sensor addition. The fluorescence-based phosphatase assay adapted was originally developed to monitor protein phosphatase activity (34). This assay involves a fluorescent sensor molecule coated in trivalent metal cations which causes superquenching of the sensor signal when in close proximity to a dye (TAMRA) on the substrate. The sensor is brought close to TAMRA via the ionic bond formed between the terminal DNA phosphate and the trivalent metal cations on the sensor. Removal of the phosphate leads to an elevation of fluorescence because the sensor is not brought close enough to TAMRA for its signal to be quenched. […] Heat inactivated hPNKP was used as a control.

T2 sequence (P06855 whole entry): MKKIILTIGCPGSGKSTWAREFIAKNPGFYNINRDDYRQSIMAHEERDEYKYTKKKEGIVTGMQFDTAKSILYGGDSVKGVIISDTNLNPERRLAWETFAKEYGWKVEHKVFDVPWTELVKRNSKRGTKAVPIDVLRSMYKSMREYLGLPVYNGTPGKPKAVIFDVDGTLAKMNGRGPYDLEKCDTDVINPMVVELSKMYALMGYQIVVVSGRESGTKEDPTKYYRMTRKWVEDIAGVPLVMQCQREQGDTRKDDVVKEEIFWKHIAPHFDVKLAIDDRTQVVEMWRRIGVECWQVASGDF
T1 sequence (Q9JLV6 whole entry): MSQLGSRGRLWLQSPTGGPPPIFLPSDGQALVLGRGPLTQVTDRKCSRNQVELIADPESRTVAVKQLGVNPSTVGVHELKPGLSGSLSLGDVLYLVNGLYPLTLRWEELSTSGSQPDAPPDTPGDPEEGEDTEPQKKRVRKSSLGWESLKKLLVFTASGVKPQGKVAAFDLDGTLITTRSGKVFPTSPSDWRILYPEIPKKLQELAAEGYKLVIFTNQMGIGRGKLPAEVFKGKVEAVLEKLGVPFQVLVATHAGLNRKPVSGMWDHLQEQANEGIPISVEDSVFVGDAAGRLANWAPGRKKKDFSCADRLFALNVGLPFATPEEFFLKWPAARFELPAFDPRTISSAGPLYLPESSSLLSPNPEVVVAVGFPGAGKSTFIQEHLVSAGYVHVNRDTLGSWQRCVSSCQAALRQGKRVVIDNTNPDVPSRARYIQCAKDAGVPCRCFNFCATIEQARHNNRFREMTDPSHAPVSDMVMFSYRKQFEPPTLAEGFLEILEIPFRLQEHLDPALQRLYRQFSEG

CCCCCCCCCCC(O)C1C=CC2C(=O)N(c3ccccc3)C(=O)C2N1Nc1ccc([N+](=O)[O-])cc1 (stereo not drawn) [Compound A12B4C3, 2-(1-hydroxyundecyl)-1-(4-nitrophenylamino)-6-phenyl-6,7a-dihydro-1H-pyrrolo[3,4-b]pyridine-5,7(2H,4aH)-dione]
inhibition of mouse PNKP [1]: significantly inhibited
inhibition of phage T4 PNKP ([2]; 50 μM): failed to inhibit
inhibition at 50 µM ([2]; read-out: inhibition of phage T4 PNKP): ~12.5%
inhibition at 1 µM ([3]; 1 μM): ~16%
reduction of human PNKP kinase activity ([3]; 50 μM): ~30%
inhibition at 50 µM [4]: ~20%
synthetic lethality in M059J cells [5]: no synthetic lethality is seen
concentration giving near maximal inhibition ([6]; PiColorLock Gold): 5 µM
potency rank among the five PNKP inhibitors ([6]; PiColorLock Gold, FIG. 4B): most potent
inhibition at 50 µM ([6]; read-out: inhibition of human PNKP): ~85%
inhibition of calcineurin [7]: Neither enzyme displayed inhibition; also recorded: no inhibition
inhibition of hPNKP phosphatase activity (substrate dephosphorylation) in the screening assay [8]: significant inhibition; also recorded: marked inhibition
